Where a chain is given by its changes, count along the chain named. Read-outs that look alike come from different tables or passages of the source.

One may read the EC50 as the concentration needed to bring the measured effect to its halfway point.

For one experiment, the target named is T1, human M1 (Homo sapiens, UniProt P11229).
T1 construct: expressed in transfected cells; host or cells: CHO cells
T1 sequence (P11229 1-460): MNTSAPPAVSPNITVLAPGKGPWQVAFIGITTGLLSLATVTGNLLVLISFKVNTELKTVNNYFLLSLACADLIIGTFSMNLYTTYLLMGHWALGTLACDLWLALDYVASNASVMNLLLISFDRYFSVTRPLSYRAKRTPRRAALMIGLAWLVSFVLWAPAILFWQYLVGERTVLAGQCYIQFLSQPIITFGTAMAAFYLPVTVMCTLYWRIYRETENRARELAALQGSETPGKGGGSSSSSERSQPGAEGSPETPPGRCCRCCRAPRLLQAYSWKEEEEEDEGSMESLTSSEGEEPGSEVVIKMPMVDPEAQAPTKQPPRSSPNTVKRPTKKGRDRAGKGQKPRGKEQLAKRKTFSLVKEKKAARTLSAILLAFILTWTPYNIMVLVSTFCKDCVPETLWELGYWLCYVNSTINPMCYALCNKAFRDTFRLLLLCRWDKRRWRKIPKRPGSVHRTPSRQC
As to the kind of experiment: M1 PAM assay (FLIPR intracellular calcium), human M1. The class given is cell-based. On the procedure:
The assay study the effect of several concentrations of test compounds on basal or acetylcholine-stimulated Ca^2+ levels using FLIPR.
CHO human M1 are plated the day before the experiments at 2×10^5 cells/ml in PDL BioCoat 96 well black/clear plate (Becton 35 4640). The cells are grown at 37° C. and 5% CO2 in the following medium: F12 Nut Mix (Gibco 21765), 10% FCS heat inactivated (GIBCO 16000-044), 1% Pen Strep (Gibco,15140) and 200 μg/ml Geneticin (Gibco 11811). On the day of the experiment, the medium was removed and replaced by […] of dye loading buffer containing Hanks Balanced Salt solution (HBSS, 14065-049, Gibco) with 20 mM HEPES (Gibco 15630-056), 2 mM Probenicid (Sigma P8761), […] ester (Molecular Probes F-14202), 10% Pluronic acid Molecular Probes P-3000) pH=7.4 and incubated at 37° C. After 60 minutes extracellular dye was removed and the cells were washed five times with FLIPR buffer containing HBSS (Gibco 14065-049) with 20 mM HEPES (Gibco, 15630-056), 2 mM Probenicid (Sigma P8761) pre-warmed at 37° C. using and Ebml cell washer leaving […] of FLIPR buffer in each well. The cell plate and the diluted compounds (1% DMSO final concentration) are placed on the platform of the FLIPR and the door closed. A signal test to check background fluorescence and basal fluorescence signal is performed. Laser intensity is adjusted if necessary. Two minutes preincubation with the diluted test compounds is provide to determine any agonist activity on the M1 receptor by comparison to 30 nM Acetylcholine control. In order to determine any modulator activity the diluted compounds were added to cells and after two minutes preincubation, the EC20 of acetylcholine is added followed by another two minutes preincubation before the measurement of intracellular Ca^2+ with a FLIPR (Molecular Devices).

A further experiment concerns the target T2, ratM1 (Rattus norvegicus, UniProt P08482).
T2 construct: expressed in transfected cells; host or cells: CHO cells (stated generally for the assay, not specifically for rat M1)
T2 sequence (P08482 1-460): T1 sequence (P11229 1-460) with A5V, T254S, P309S, R320K, A337G, I413V
As to the kind of experiment: M1 PAM assay (FLIPR intracellular calcium), rat M1. It counts as cell-based. In general terms: Calcium assays in cells follow changes in intracellular calcium, usually with a dye or a luminescent sensor.

Setting [1] is: CHO human M1 cells, FLIPR Ca2+, with EC20 of acetylcholine, first value of the cell, read-out: hM1 EC50.
Where [2] appears, read: rat M1, FLIPR Ca2+, second value of the cell, read-out: ratM1 EC50.

`CNC(=O)c1ccc(Cn2cc(C(=O)NC3(C)CCOCC3)c3c(F)cccc32)cc1` [Example 123, 4-fluoro-1-[[4-(methylcarbamoyl)phenyl]methyl]-N-(4-methyloxan-4-yl)indole-3-carboxamide]: the EC50 at human M1 (setting [1]) turned out to be 364 nM; at ratM1 (setting [2]), 680 nM.

With `CNC(=O)c1ccc(Cn2cc(C(=O)NC3CCCCC3(F)F)c3c(F)cccc32)cc1` (stereo not drawn) [Example 120, N-(2,2-difluorocyclohexyl)-4-fluoro-1-[[4-(methylcarbamoyl)phenyl]methyl]indole-3-carboxamide], the half-maximal effective concentration (EC50) on human M1 (setting [1]) is 15 nM; on ratM1 (setting [2]), 32 nM.

Turning to `Cn1cc(-c2ccc(Cn3nc(C(=O)N[C@H]4CCCC[C@@H]4O)c4c(F)ccc(F)c43)c(F)c2)cn1` [Example 72, 4,7-difluoro-1-(2-fluoro-4-(1-methyl-1H-pyrazol-4-yl)benzyl)-N-((1S,2S)-2-hydroxycyclohexyl)-1H-indazole-3-carboxamide], the 50% effective concentration (EC50) on human M1 (setting [1]) amounted to 42.8 nM; at ratM1 (setting [2]) it was 133 nM.

As to `Cc1ccc(F)c2c(C(=O)N[C@H]3CCCC[C@@H]3O)cn(Cc3ccc(-c4cnn(C)c4)cc3F)c12` [Example 45, 4-fluoro-1-(2-fluoro-4-(1-methyl-1H-pyrazol-4-yl)benzyl)-N-((1S,2S)-2-hydroxycyclohexyl)-7-methyl-1H-indole-3-carboxamide], the EC50 at human M1 (setting [1]) is 36.1 nM; on ratM1 (setting [2]) it was 74.1 nM.

Take `O=C(N[C@H]1CCCC[C@@H]1O)c1cn(CC2CCN(c3ccncn3)CC2)c2cccc(F)c12` [Example 143, 4-fluoro-N-((1S,2S)-2-hydroxycyclohexyl)-1-((1-(pyrimidin-4-yl)piperidin-4-yl)methyl)-1H-indole-3-carboxamide]: the EC50 stood at 409 nM at human M1 (setting [1]) and 1070 nM on ratM1 (setting [2]).

In the case of `Cc1ccc(F)c2c(C(=O)NC3CCOCC3)cn(Cc3ccc(-c4cnn(C)c4)cc3)c12` [Example 49, 4-fluoro-7-methyl-1-(4-(1-methyl-1H-pyrazol-4-yl)benzyl)-N-(tetrahydro-2H-pyran-4-yl)-1H-indole-3-carboxamide], the results for the EC50 on human M1 (setting [1]) and at ratM1 (setting [2]) were 44.5 nM and 52.5 nM, respectively.

As for `Cn1cc(-c2ccc(Cn3cc(C(=O)N[C@H]4CCCC[C@@H]4O)c4c(F)cccc43)c(F)c2)cn1` [Example 1], the values for the EC50 at human M1 (setting [1]) and on ratM1 (setting [2]) were 5.64 nM and 62.6 nM, respectively.

As to `COc1ccc(F)c2c(C(=O)NC3CCOCC3)cn(Cc3ccc(-c4cnn(C)c4)cc3F)c12` [Example 152, 4-fluoro-1-(2-fluoro-4-(1-methyl-1H-pyrazol-4-yl)benzyl)-7-methoxy-N-(tetrahydro-2H-pyran-4-yl)-1H-indole-3-carboxamide], the concentration for a half-maximal effect (EC50) came to 260 nM on human M1 (setting [1]) and 609 nM at ratM1 (setting [2]).

As to `O=C(N[C@H]1CCCC[C@@H]1O)c1cn(Cc2ccc3nccn3c2)c2cccc(F)c12` [Example 145, 4-fluoro-N-((1S,2S)-2-hydroxycyclohexyl)-1-(imidazo[1,2-a]pyridin-6-ylmethyl)-1H-indole-3-carboxamide], the concentration for a half-maximal effect (EC50) was 17 nM at human M1 and 36 nM on ratM1.

As for `Cn1cc(-c2ccc(Cn3nc(C(=O)N[C@H]4CCOC[C@@H]4O)c4c(F)ccc(F)c43)c(F)c2)cn1` [Example 73, 4,7-difluoro-1-(2-fluoro-4-(1-methyl-1H-pyrazol-4-yl)benzyl)-N-((3R,4S)-3-hydroxytetrahydro-2H-pyran-4-yl)-1H-indazole-3-carboxamide], the EC50 on human M1 (setting [1]) was 65.8 nM; at ratM1 (setting [2]), 94.3 nM.

Regarding `COc1ccc(F)c2c(C(=O)NC3CCOCC3)cn(Cc3ccc(-c4cnn(C)c4)cc3)c12` [Example 151, 4-fluoro-7-methoxy-1-(4-(1-methyl-1H-pyrazol-4-yl)benzyl)-N-(tetrahydro-2H-pyran-4-yl)-1H-indole-3-carboxamide], the EC50 on human M1 (setting [1]) came to 194 nM; on ratM1 (setting [2]) it was 299 nM.

As to `CNC(=O)c1ccc(Cn2cc(C(=O)NC3CCOCC3)c3c(F)cccc32)c(F)c1` [Example 164, 4-Fluoro-1-(2-fluoro-4-(methylcarbamoyl)benzyl)-N-(tetrahydro-2H-pyran-4-yl)-1H-indole-3-carboxamide], the values for the EC50 on human M1 (setting [1]) and on ratM1 (setting [2]) were 48 nM and 88 nM, respectively.

For `O=C(N[C@H]1CCCC[C@@H]1O)c1cn(Cc2ccc(-c3ncccn3)cc2)c2cccc(F)c12` [Example 135, 4-fluoro-N-((1S,2S)-2-hydroxycyclohexyl)-1-(4-(pyrimidin-2-yl)benzyl)-1H-indole-3-carboxamide], the EC50 on human M1 (setting [1]) was found to be 97 nM; at ratM1 (setting [2]), 384 nM.

Turning to `O=C(NC1CCOCC1)c1cn(Cc2ccc(-c3nc[nH]n3)cc2)c2cccc(F)c12` [Example 157, 1-(4-(1H-1,2,4-triazol-3-yl)benzyl)-4-fluoro-N-(tetrahydro-2H-pyran-4-yl)-1H-indole-3-carboxamide], the values for the EC50 at human M1 (setting [1]) and on ratM1 (setting [2]) were 95 nM and 117 nM, respectively.

For `O=C(N[C@H]1CCCC[C@@H]1O)c1cn(Cc2cnc(-c3ccccc3)nc2)c2cccc(F)c12` [Example 139, 4-fluoro-N-((1S,2S)-2-hydroxycyclohexyl)-1-((2-phenylpyrimidin-5-yl)methyl)-1H-indole-3-carboxamide], the concentration for a half-maximal effect (EC50) stood at 423 nM at human M1 (setting [1]) and 2630 nM on ratM1 (setting [2]).

`Cn1cc(-c2ccc(Cn3cc(C(=O)N[C@@H]4CCCC(F)(F)[C@H]4O)c4c(F)cccc43)c(F)c2)cn1` [Example 102, N-((1R,2S)-3,3-difluoro-2-hydroxycyclohexyl)-4-fluoro-1-(2-fluoro-4-(1-methyl-1H-pyrazol-4-yl)benzyl)-1H-indole-3-carboxamide]: the EC50 stood at 29 nM at human M1 (setting [1]) and 88 nM on ratM1 (setting [2]).

With `O=C(N[C@H]1CCCC[C@@H]1O)c1cn(Cc2ccc(-c3ccccc3)cn2)c2cccc(F)c12` [Example 140], the values for the EC50 at human M1 (setting [1]) and at ratM1 (setting [2]) were 103 nM and 518 nM, respectively.

For the molecule `O=C(N[C@H]1CCCC[C@@H]1O)c1cn(Cc2ccc(-c3nc[nH]n3)cc2)c2cccc(F)c12` [Example 156, 1-(4-(1H-1,2,4-triazol-3-yl)benzyl)-4-fluoro-N-((1S,2S)-2-hydroxycyclohexyl)-1H-indole-3-carboxamide], the EC50 worked out at 3 nM on human M1 (setting [1]) and 10 nM at ratM1 (setting [2]).

Regarding `Cn1cc(-c2ccc(Cn3cc(C(=O)NC4CCOCC4)c4c(F)cccc43)cn2)cn1` [Example 68, 4-fluoro-1-((6-(1-methyl-1H-pyrazol-4-yl)yridine-3-yl)methyl)-N-(tetrahydro-2H-pyran-4-yl)-1H-indole-3-carboxamide], the values for the EC50 on human M1 (setting [1]) and on ratM1 (setting [2]) were 267 nM and 182 nM, respectively.

Consider `Cn1cc(-c2ccc(Cn3cc(C(=O)N[C@@H]4CCOC[C@H]4O)c4c(F)cccc43)c(F)c2)cn1` (single isomer, unassigned) [Example 70, 4-Fluoro-1-(2-fluoro-4-(1-methyl-1H-pyrazol-4-yl)benzyl)-N-((3S,4R) or (3R,4S)-3-hydroxytetrahydro-2H-pyran-4-yl)-1H-indole-3-carboxamide], for which the EC50 at human M1 (setting [1]) was 102 nM; on ratM1 (setting [2]), 284 nM.

For `Cn1ncc2cc(Cn3cc(C(=O)NC4CCOCC4)c4c(F)cccc43)ccc21` [Example 66, 4-fluoro-1-((1-methyl-1H-indazol-5-yl)methyl)-N-(tetrahydro-2H-pyran-4-yl)-1H-indole-3-carboxamide], the EC50 is 216 nM at human M1 and 412 nM on ratM1.
